Results from patent publication US10155021B2, “Antimicrobial 4-oxoquinolizines” (Emergent Product Development Gaithersburg Inc., priority 2011, dated 2018).
≈ marks a conversion by molar mass, not a printed value. Like-named read-outs stand apart in the source and are kept apart here. Marks after values point to notes of the source that are not given here.

What was measured:
A. baumannii A401 [1] = test: MIC without and with sub-inhibitory polymyxin B (Example 4); type: cell-based, Acinetobacter baumannii; conditions: for MIC: Acinetobacter baumannii, A401, A baumannii A 401, without polymyxin B, read-out: MIC without PB
A. baumannii A472 [2] = test: as above; type: cell-based, Acinetobacter baumannii; conditions: for MIC +[…] PB: +[…] polymyxin B; for MIC: Acinetobacter baumannii, A472, A. baumannii A472, without polymyxin B, read-out: MIC without PB
A. baumannii A473 [3] = test: as above; type: cell-based, Acinetobacter baumannii; conditions: for MIC: Acinetobacter baumannii, A473, A. baumannii A473, without polymyxin B, read-out: MIC without PB
A. baumannii A489 = test: as above; type: cell-based, Acinetobacter baumannii; conditions: for MIC +[…] PB / MIC without PB/MIC + PB: A. baumannii A489; for MIC +[…] PB: +[…] polymyxin B; for MIC without PB/MIC + PB: ratio; for MIC: Acinetobacter baumannii, A489, A. baumannii A489, without polymyxin B, read-out: MIC without PB
A. baumannii J2 = test: Preliminary MBC without and with sub-inhibitory polymyxin B (Example 4); type: cell-based, Acinetobacter baumannii; conditions: preliminary MBC; for MBC +[…] PB: A. baumannii J2, +[…] polymyxin B; for MBC: Acinetobacter baumannii, J2, A. baumannii J2, without polymyxin B, read-out: MBC without PB
[4] = system: Acinetobacter sp. (H064200250); test: as above; type: cell-based; conditions: preliminary MBC; for MBC +[…] PB: +[…] polymyxin B; for MBC: Acinetobacter, without polymyxin B, read-out: MBC without PB
Outline: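 Incubation 18-20 h, 37° C. MBC = lowest conc. with ~90% fewer colonies than positive control (single/no colonies).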

A. baumannii A329 = test: as above; type: cell-based, Acinetobacter baumannii; conditions: for MBC: Acinetobacter baumannii, A329, A. baumannii A329, without polymyxin B, read-out: MBC without PB
A. baumannii A390 = test: as above; type: cell-based, Acinetobacter baumannii; conditions: preliminary MBC; for MBC: Acinetobacter baumannii, A390, A. baumannii A390, without polymyxin B, read-out: MBC without PB
A. baumannii A401 [5] = test: as above; type: cell-based, Acinetobacter baumannii; conditions: preliminary MBC; for MBC +0.06 μg/ml PB: A baumannii A 401, +0.06 μg/ml polymyxin B; for MBC: Acinetobacter baumannii, A401, A baumannii A 401, without polymyxin B, read-out: MBC without PB
A. baumannii A472 [6] = test: as above; type: cell-based, Acinetobacter baumannii; conditions: for MBC +[…] PB: A. baumannii A472, +[…] polymyxin B; for MBC: Acinetobacter baumannii, A472, A. baumannii A472, without polymyxin B, read-out: MBC without PB
A. baumannii A473 [7] = test: as above; type: cell-based, Acinetobacter baumannii; conditions: for MBC: Acinetobacter baumannii, A473, A. baumannii A473, without polymyxin B, read-out: MBC without PB
[8] = Acinetobacter spp. H064200250 (OXA51), 2nd experiment
[9] = Acinetobacter spp. H064200250, 1st experiment

With `C[C@@H](O)[C@H]1C(=O)N2C(C(=O)O)=C(SCCN=CN)C[C@H]12` [Imipenem, reference compound] the MIC ratio without/with polymyxin B (A. baumannii A401 [1]; A baumannii A 401, ratio MIC without PB to MIC + PB, PB 0.06 μg/ml, 2nd experiment) was 8 µg/mL, the “MIC without PB/MIC + PB” value (A. baumannii A401 [1]; A baumannii A 401, ratio, PB 0.06 μg/ml, 1st experiment) was 4 and the MIC (A. baumannii A401 [1]; 1st experiment) was 32 µg/mL (≈ 107 µM). For the same compound, the MIC (A. baumannii A401 [1]; 2nd experiment, visual reading) was 32 µg/mL (≈ 107 µM), the “MIC +[…] PB” value (A. baumannii A472 [2]; A. baumannii A472, 1st experiment) was 0.25 µg/mL (≈ 0.835 µM) and the “MIC +[…] PB” value (A. baumannii A472 [2]; A. baumannii A472, 2nd experiment, visual reading) was 0.25 µg/mL (≈ 0.835 µM). The MIC ratio without/with polymyxin B (A. baumannii A472 [2]; A. baumannii A472, ratio MIC without PB to MIC + PB, PB […], 2nd experiment) was 32 µg/mL, the “MIC without PB/MIC + PB” value (A. baumannii A472 [2]; A. baumannii A472, ratio, PB […], 1st experiment) was 64 and the MIC (A. baumannii A472 [2]; 1st experiment) was 16 µg/mL (≈ 53.4 µM). For the same compound, the MIC (A. baumannii A472 [2]; 2nd experiment, visual reading) was 8 µg/mL (≈ 26.7 µM), the “MIC +0.06 μg/ml PB” value (A. baumannii A473 [3]; A. baumannii A473, +0.06 μg/ml polymyxin B, 2nd experiment, visual reading) was 4 µg/mL and the “MIC without PB/MIC + PB” value (A. baumannii A473 [3]; A. baumannii A473, ratio, PB 0.06 μg/ml, 2nd experiment) was 8. For the same compound, the MIC (A. baumannii A473 [3]; 1st experiment) was 32 µg/mL (≈ 107 µM), the MIC (A. baumannii A473 [3]; 2nd experiment, visual reading) was 32 µg/mL (≈ 107 µM) and the “MIC +[…] PB” value (A. baumannii A489; 1st experiment) was 2 µg/mL (≈ 6.68 µM). For the same compound, the “MIC +[…] PB” value (A. baumannii A489; 2nd experiment, visual reading) was 0.25 µg/mL (≈ 0.835 µM), the “MIC without PB/MIC + PB” value (A. baumannii A489; 1st experiment) was 64 and the “MIC without PB/MIC + PB” value (A. baumannii A489; 2nd experiment) was 256. For the same compound, the MIC (A. baumannii A489; 1st experiment) was 128 µg/mL (≈ 428 µM), the MIC (A. baumannii A489; 2nd experiment, visual reading) was 64 µg/mL (≈ 214 µM) and the “MBC +[…] PB” value (A. baumannii J2; 2nd experiment) was no more than 0.125 µg/mL. The “MBC +[…] PB” value (A. baumannii J2; 1st experiment) was no more than 0.125 µg/mL, the MBC (A. baumannii J2; 2nd experiment) was 8 µg/mL (≈ 26.7 µM) and the MBC (A. baumannii J2; 1st experiment) was 4 µg/mL (≈ 13.4 µM). The “MBC +[…] PB” value [4, 8] was 0.5 µg/mL (≈ 1.67 µM), the “MBC +[…] PB” value [4, 9] was 2 (0.5)* μg/ml and the MBC [4, 8] was 8 µg/mL (≈ 26.7 µM). For the same compound, the MBC [4, 9] was 16 µg/mL (≈ 53.4 µM), the “MBC +0.06 μg/ml PB” value (A. baumannii A329; A. baumannii A329, +0.06 μg/ml polymyxin B, 2nd experiment) was 128 µg/mL and the MBC (A. baumannii A329; 1st experiment) was 128 µg/mL (≈ 428 µM). The MBC (A. baumannii A329; 2nd experiment) was greater than 128 µg/mL, the “MBC +0.06 μg/ml PB” value (A. baumannii A390; A. baumannii A390, +0.06 μg/ml polymyxin B, 2nd experiment) was 4 µg/mL and the MBC (A. baumannii A390; 2nd experiment) was 16 µg/mL (≈ 53.4 µM). The MBC (A. baumannii A390; 1st experiment) was 16 µg/mL (≈ 53.4 µM), the “MBC +0.06 μg/ml PB” value (A. baumannii A401 [5]; 2nd experiment) was 4 µg/mL and the “MBC +0.06 μg/ml PB” value (A. baumannii A401 [5]; 1st experiment) was 8 µg/mL. The MBC (A. baumannii A401 [5]; 2nd experiment) was 32 µg/mL (≈ 107 µM), the MBC (A. baumannii A401 [5]; 1st experiment) was 32 µg/mL (≈ 107 µM) and the “MBC +[…] PB” value (A. baumannii A472 [6]; 1st experiment) was 0.25 µg/mL (≈ 0.835 µM). The “MBC +[…] PB” value (A. baumannii A472 [6]; 2nd experiment) was 0.25 µg/mL (≈ 0.835 µM), the MBC (A. baumannii A472 [6]; 1st experiment) was 16 µg/mL (≈ 53.4 µM) and the MBC (A. baumannii A472 [6]; 2nd experiment) was 8 µg/mL (≈ 26.7 µM). The “MBC +0.06 μg/ml PB” value (A. baumannii A473 [7]; A. baumannii A473, +0.06 μg/ml polymyxin B, 2nd experiment) was 4 µg/mL, the MBC (A. baumannii A473 [7]; 1st experiment) was 32 µg/mL (≈ 107 µM) and the MBC (A. baumannii A473 [7]; 2nd experiment) was 32 µg/mL (≈ 107 µM).
